Holding throughout (assay): inhibition of tumour cell growth, NCI panel, 48 h
Assay [1] has as its system HCT-15.
Assay [2] relates to TK-10.
The test system of assay [3] is SN12C.
Assay [4] relates to NCI-H460.
Assay [5] concerns Malme-3M.
The test system of assay [6] is COLO 205.
Assay [7] concerns HOP-92.
Assay [8] concerns LOX IMVI.
The subject of assay [9] is NCI/ADR-RES.
The subject of assay [10] is HL-60.
Assay [11] has as its system A549.
Assay [12] relates to MDA-MB-435.
Assay [13] deals with RPMI-8226.
Assay [14] has as its system HOP-62.
Assay [15] relates to NCI-H226.
Assay [16] has as its system SF-295.
Assay [17] deals with A498.
The test system of assay [18] is MDA-MB-231.
Assay [19] has as its system KM12.

Each structure is given as a SMILES string.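 A five-concentration, 48-hour dose response in 96-well plates underlies each endpoint, interpolated linearly between surrounding concentrations. Abbreviation: GI50, concentration required for 50% inhibition of growth.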 The source made the active and inactive calls. No stated cut-off is given here; in the data, active = GI50 up to about 1.1 µM and inactive = higher.

For `Nc1c(Cl)ncnc1NCC1(CO)CCC1`, the GI50 was above 100 µM in [1]; > 100 µM (inactive) in assay [2]; > 100 µM (inactive) in assay [3]; > 100 µM (inactive) in [4]; > 100 µM (inactive) in [5]; > 100 µM (inactive) in assay [6]. In addition, the GI50 in assay [7], in assay [8], in assay [9], in assay [10], in [11] and in assay [12] was > 100 µM (inactive) each time. In addition, the GI50 in [13], in assay [14], in assay [15], in assay [16], in assay [17] and in assay [18] was > 100 µM (inactive) throughout. Moreover, the GI50 in assay [19] was > 100 µM (inactive).

As to `CCOC(=O)CCC(NC(=O)c1ccc(OCc2ccc3nc(-c4ccccc4)c(Cl)nc3c2)cc1)C(=O)OCC` (stereo not drawn), the GI50 in assay [1] is above 31.6 µM; in [2], 16.4 µM (inactive); in [3] it was > 100 µM (inactive); in assay [4], > 31.6 µM (inactive); in assay [5] it was > 100 µM (inactive); in assay [6], > 100 µM (inactive). Also, the GI50 was 15.6 µM (inactive) in assay [7]; > 100 µM (inactive) in [8]; 16.7 µM (inactive) in assay [9]; 7.29 µM (inactive) in assay [10]; 19.5 µM (inactive) in assay [11]; > 31.6 µM (inactive) in assay [12]. Further, the GI50 is 18.9 µM (inactive) in [13]; > 31.6 µM (inactive) in assay [14]; 19.2 µM (inactive) in assay [15]; 22 µM (inactive) in assay [16]; 36.1 µM (inactive) in [17]; 24.3 µM (inactive) in assay [18]. In [19], the GI50 was > 31.6 µM (inactive).

Turning to `CCOC(=O)CCC(NC(=O)Cc1ccc(Oc2nc3ccccc3nc2-c2cccs2)cc1)C(=O)OCC` (stereo not drawn), the GI50 was above 100 µM in assay [1]; 19.2 µM (inactive) in assay [2]; 8.89 µM (inactive) in [3]; 34.4 µM (inactive) in assay [4]; 22.7 µM (inactive) in assay [5]; > 100 µM (inactive) in assay [6]. Besides, the GI50 in assay [7] is 14 µM (inactive); in [8], 20.7 µM (inactive); in assay [9], 4.95 µM (inactive); in assay [10] it was > 100 µM (inactive); in [11], 7.19 µM (inactive); in [12] it was 88.7 µM (inactive). The GI50 was > 100 µM (inactive) in assay [13]; 1.73 µM (inactive) in assay [14]; 16.6 µM (inactive) in assay [15]; 40.9 µM (inactive) in [16]; 19.4 µM (inactive) in assay [17]; 4.08 µM (inactive) in assay [18]. Further, the GI50 in [19] was > 100 µM (inactive).

As to `CCOC(=O)C(SCCO)C(C(=O)OCC)n1cnc2c(=O)[nH]c(NC(C)=O)nc21` (stereo not drawn), the GI50 in assay [1] was above 100 µM; in assay [2], > 100 µM (inactive); in [3], > 100 µM (inactive); in assay [4], > 100 µM (inactive); in assay [5], > 100 µM (inactive); in assay [6], > 100 µM (inactive). In addition, the GI50 is > 100 µM (inactive) in assay [7]; 51.8 µM (inactive) in assay [8]; > 100 µM (inactive) in [9]; > 100 µM (inactive) in assay [10]; > 100 µM (inactive) in assay [11]; > 100 µM (inactive) in [12]. In addition, the GI50 in [13], in [14], in [15], in assay [16], in [17] and in assay [18] was > 100 µM (inactive) throughout. Also, the GI50 in assay [19] is > 100 µM (inactive).

As to `O=[N+]([O-])/C(C(Cl)=C(Cl)Cl)=C(/Nc1ccccc1)Sc1ccccc1`, the GI50 in [1] is 19.8 µM; in [2], 27.7 µM (inactive); in assay [3], 26.9 µM (inactive); in [4], 18.4 µM (inactive); in [5] it was 15.9 µM (inactive); in assay [6], 18.5 µM (inactive). Further, the GI50 in assay [7] is 32.8 µM (inactive); in assay [8] it was 15.7 µM (inactive); in assay [9] it was 24.4 µM (inactive); in assay [10], 20.6 µM (inactive); in assay [11], 23.4 µM (inactive); in assay [12], 18.1 µM (inactive). Further, the GI50 is 32.6 µM (inactive) in assay [13]; 19.5 µM (inactive) in assay [14]; 23 µM (inactive) in assay [15]; 16.5 µM (inactive) in [16]; 20.8 µM (inactive) in assay [17]; 15.7 µM (inactive) in assay [18]. The GI50 in assay [19] is 18.2 µM (inactive).

For `O=C(O)c1c(-c2nccc3ccccc23)[nH]c(-c2ccccc2)c1S(=O)(=O)O`, the GI50 in assay [1] is above 100 µM; in [2] it was > 100 µM (inactive); in assay [3] it was > 100 µM (inactive); in assay [4] it was > 100 µM (inactive); in assay [5] it was > 100 µM (inactive); in [6] it was > 100 µM (inactive). Further, the GI50 in [7] is > 100 µM (inactive); in assay [8], > 100 µM (inactive); in assay [9], > 100 µM (inactive); in assay [10], 41.8 µM (inactive); in [11], > 100 µM (inactive); in assay [12], > 100 µM (inactive). Also, the GI50 in [13], in assay [14], in assay [15], in assay [16], in [17] and in [18] was > 100 µM (inactive) throughout. Also, the GI50 in [19] was > 100 µM (inactive).

As to `CCCOC(=O)c1cc(O)c(O)c(O)c1` [PROPYL GALLATE], the GI50 in assay [1] was 20.7 µM; in assay [2], > 100 µM (inactive); in [3], 22.4 µM (inactive); in assay [4], 30.1 µM (inactive); in assay [5], 74.6 µM (inactive); in assay [6], > 100 µM (inactive). Moreover, the GI50 was 60.4 µM (inactive) in [7]; 16.1 µM (inactive) in [8]; 26.5 µM (inactive) in assay [9]; > 100 µM (inactive) in assay [10]; 27.2 µM (inactive) in assay [11]; 19.3 µM (inactive) in assay [12]. For the same molecule, the GI50 in assay [13] was > 100 µM (inactive); in assay [14], 33.8 µM (inactive); in assay [15] it was 17.7 µM (inactive); in assay [16] it was 47.5 µM (inactive); in assay [17], > 100 µM (inactive); in assay [18], 58.1 µM (inactive). The GI50 in assay [19] is 20.5 µM (inactive).

Source of the values: ChEMBL document CHEMBL1201862, “PubChem BioAssay data set” (2004).
